Test results: DBAASP
Converted amounts (≈) assume the structure as drawn.

Key:
Assay in all cases: ≥ marks a high value that may be exact or a test limit, other limits are often not marked, values filed in µg/mL are converted to µM
[1] = test system: Rhodococcus rhodochrous X15
[2] = test system: Escherichia coli ATCC 25922
[3] = test system: Bacillus licheniformis X39
[4] = test system: Bacillus subtilis ATCC 23857
[5] = test system: Staphylococcus aureus 113
Escherichia coli 780 = test system: Escherichia coli 780
[6] = test system: Staphylococcus epidermidis ATCC 12228
[7] = test system: Staphylococcus aureus ATCC 29213
[8] = test system: Acinetobacter baumannii 97830
[9] = test system: Acinetobacter baumannii ATCC 19606
[10] = test system: Acinetobacter baumannii 9931
[11] = test system: Klebsiella pneumoniae ATCC 700603
Escherichia coli 804 = test system: Escherichia coli 804
[12] = test system: Pseudomonas aeruginosa ATCC 9027
[13] = test system: Pseudomonas aeruginosa 73
[14] = test system: Pseudomonas aeruginosa ATCC 27853
Staphylococcus aureus 75 = test system: Staphylococcus aureus 75
[15] = test system: Pseudomonas aeruginosa 50
[16] = test system: Escherichia coli ATCC 2592
[17] = test system: Pseudomonas aeruginosa ATCC 10145
[18] = test system: Staphylococcus aureus ATCC 33591
[19] = test system: Cryptococcus neoformans ATCC 32045
[20] = test system: Candida albicans ATCC 10231

| Compound | MIC [4] | MIC [5] | MIC (Escherichia coli 780) | MIC [6] | MIC [7] | MIC [8] | MIC [9] | MIC [10] | MIC [11] | MIC (Escherichia coli 804) | MIC [12] | MIC [13] | MIC [14] | MIC (Staphylococcus aureus 75) | MIC [15] | MIC [16] | MIC [17] | MIC [18] | MIC [19] | MIC [20] | further results |
| --- | --- | --- | --- | --- | --- | --- | --- | --- | --- | --- | --- | --- | --- | --- | --- | --- | --- | --- | --- | --- | --- |
| CC[C@H](C)[C@@H]1NC(=O)[C@H](CCCCN)NC(=O)[C@@H](NC(=O)[C@H](Cc2ccccc2)NC(=O)[C@H](CC(C)C)NC(=O)[C@@H](NC(=O)[C@@H]2CCCN2C(=O)[C@@H](NC(=O)[C@@H](NC(=O)[C@H](CC(N)=O)NC(=O)[C@H](C)NC(=O)[C@H](C)NC(=O)[C@@H](NC(=O)[C@H](CCCCN)NC(=O)[C@H](CC(C)C)NC(=O)[C@H](C)NC(=O)[C@@H](NC(=O)[C@H](CO)NC(=O)[C@H](CC(C)C)NC(=O)[C@@H](N)Cc2ccccc2)[C@@H](C)O)C(C)C)C(C)C)C(C)C)[C@@H](C)O)CSSC[C@@H](C(=O)O)NC(=O)[C@H](CCCCN)NC(=O)[C@H](CCCCN)NC(=O)[C@H]([C@@H](C)O)NC1=O [FLSTALKVAANVVPTLFCKITKKC] |  |  |  |  |  |  |  |  |  |  |  |  |  |  |  |  |  |  |  |  | MIC [1]: 9 µM (≈ 23.3 µg/mL); MIC [2]: 150 µM (≈ 389 µg/mL); MIC [3]: ≥ 75 µM |
| CC[C@H](C)[C@H](N)C(=O)N[C@@H](Cc1c[nH]c2ccccc12)C(=O)N[C@@H](CCCN=C(N)N)C(=O)N[C@@H](Cc1c[nH]c2ccccc12)C(=O)N[C@@H](Cc1c[nH]c2ccccc12)C(=O)N[C@@H](Cc1c[nH]c2ccccc12)C(=O)N[C@@H](CCCN=C(N)N)C(=O)N[C@@H](Cc1c[nH]c2ccccc12)C(=O)N[C@H](C(N)=O)[C@@H](C)CC [IWRWWWRWI] | 4 µM (≈ 5.95 µg/mL) | 4 µM (≈ 5.95 µg/mL) | 16 µM (≈ 23.8 µg/mL) | 4 µM (≈ 5.95 µg/mL) | 4 µM (≈ 5.95 µg/mL) | 8 µM (≈ 11.9 µg/mL) | 32 µM (≈ 47.6 µg/mL) | 8 µM (≈ 11.9 µg/mL) | 8 µM (≈ 11.9 µg/mL) | 8 µM (≈ 11.9 µg/mL) | 32 µM (≈ 47.6 µg/mL) | ≥ 32 µM | 32 µM (≈ 47.6 µg/mL) | 8 µM (≈ 11.9 µg/mL) | 16 µM (≈ 23.8 µg/mL) |  |  |  |  |  |  |
| C[C@H](NC(=O)[C@H](Cc1ccccc1)NC(=O)[C@H](CCCCN)NC(=O)[C@H](CCCCN)NC(=O)[C@H](C)NC(=O)[C@H](Cc1ccccc1)NC(=O)[C@H](CCCCN)NC(=O)[C@H](CCCCN)NC(=O)[C@H](C)NC(=O)[C@H](Cc1ccccc1)NC(=O)[C@H](CCCCN)NC(=O)[C@H](CCCCN)NC(=O)[C@H](C)NC(=O)[C@H](Cc1ccccc1)NC(=O)[C@H](CCCCN)NC(=O)[C@H](CCCCN)NC(=O)[C@H](C)NC(=O)[C@H](Cc1ccccc1)NC(=O)[C@@H](N)CCCCN)C(=O)N[C@@H](CCCCN)C(=O)O [KFAKKFAKKFAKKFAKKFAK] |  |  |  |  |  |  |  |  |  |  |  |  |  |  |  | 9.46 µM (≈ 22.6 µg/mL) | 3.35 µM (≈ 8 µg/mL) | ≥ 105 µM | 4.73 µM (≈ 11.3 µg/mL) | 44.4 µM (≈ 106 µg/mL) |  |
| NCCCC[C@H](NC(=O)[C@H](Cc1ccccc1)NC(=O)[C@H](CCCCN)NC(=O)[C@H](CCCCN)NC(=O)[C@H](Cc1ccccc1)NC(=O)[C@H](CCCCN)NC(=O)[C@H](CCCCN)NC(=O)[C@H](Cc1ccccc1)NC(=O)[C@H](CCCCN)NC(=O)[C@H](CCCCN)NC(=O)[C@H](Cc1ccccc1)NC(=O)[C@H](CCCCN)NC(=O)[C@H](CCCCN)NC(=O)[C@H](Cc1ccccc1)NC(=O)[C@H](CCCCN)NC(=O)[C@H](CCCCN)NC(=O)[C@H](Cc1ccccc1)NC(=O)[C@H](CCCCN)NC(=O)[C@H](CCCCN)NC(=O)[C@H](Cc1ccccc1)NC(=O)[C@H](CCCCN)NC(=O)[C@H](CCCCN)NC(=O)[C@H](Cc1ccccc1)NC(=O)[C@H](CCCCN)NC(=O)[C@H](CCCCN)NC(=O)[C@H](Cc1ccccc1)NC(=O)[C@@H](N)CCCCN)C(=O)O [KFKKFKKFKKFKKFKKFKKFKKFKKFK] |  |  |  |  |  |  |  |  |  |  |  |  |  |  |  | 6.2 µM (≈ 22.6 µg/mL) | ≥ 34.2 µM | ≥ 48.4 µM | 24.1 µM (≈ 88 µg/mL) | 96.9 µM (≈ 354 µg/mL) |  |
| CC(C)C[C@H](NC(=O)[C@H](CCCCN)NC(=O)[C@H](CCCCN)NC(=O)[C@H](CC(C)C)NC(=O)[C@H](CC(C)C)NC(=O)[C@H](CCCCN)NC(=O)[C@H](CCCCN)NC(=O)[C@H](CC(C)C)NC(=O)[C@H](CC(C)C)NC(=O)[C@H](CCCCN)NC(=O)[C@H](CCCCN)NC(=O)[C@H](CC(C)C)NC(=O)[C@H](CC(C)C)NC(=O)[C@H](CCCCN)NC(=O)[C@H](CCCCN)NC(=O)[C@H](CC(C)C)NC(=O)[C@H](CC(C)C)NC(=O)[C@H](CCCCN)NC(=O)[C@H](CCCCN)NC(=O)[C@@H](N)CC(C)C)C(=O)O [LKKLLKKLLKKLLKKLLKKL] |  |  |  |  |  |  |  |  |  |  |  |  |  |  |  | ≥ 36.2 µM | 25.5 µM (≈ 62 µg/mL) | ≥ 103 µM | ≥ 36.2 µM | > 206 µM |  |
| CC(C)[C@H](N)C(=O)N[C@@H](CCCN=C(N)N)C(=O)N[C@@H](CCCN=C(N)N)C(=O)N[C@@H](Cc1c[nH]c2ccccc12)C(=O)N[C@@H](Cc1c[nH]c2ccccc12)C(=O)N[C@@H](Cc1c[nH]c2ccccc12)C(=O)N[C@@H](CCCN=C(N)N)C(=O)N[C@@H](CCCN=C(N)N)C(=O)N[C@H](C(N)=O)C(C)C [VRRWWWRRV] | 4 µM (≈ 5.59 µg/mL) | 16 µM (≈ 22.4 µg/mL) | ≥ 64 µM | 4 µM (≈ 5.59 µg/mL) | 8 µM (≈ 11.2 µg/mL) | ≥ 64 µM | 128 µM (≈ 179 µg/mL) | ≥ 32 µM | 64 µM (≈ 89.5 µg/mL) | ≥ 64 µM | 32 µM (≈ 44.8 µg/mL) | ≥ 128 µM | 32 µM (≈ 44.8 µg/mL) | 8 µM (≈ 11.2 µg/mL) | ≥ 128 µM |  |  |  |  |  |  |
| CC(C)[C@H](N)C(=O)N[C@@H](Cc1c[nH]c2ccccc12)C(=O)N[C@@H](CCCN=C(N)N)C(=O)N[C@@H](Cc1c[nH]c2ccccc12)C(=O)N[C@@H](Cc1c[nH]c2ccccc12)C(=O)N[C@@H](Cc1c[nH]c2ccccc12)C(=O)N[C@@H](CCCN=C(N)N)C(=O)N[C@@H](Cc1c[nH]c2ccccc12)C(=O)N[C@H](C(N)=O)C(C)C [VWRWWWRWV] | 4 µM (≈ 5.83 µg/mL) | 4 µM (≈ 5.83 µg/mL) | 4 µM (≈ 5.83 µg/mL) | 4 µM (≈ 5.83 µg/mL) | 4 µM (≈ 5.83 µg/mL) | 4 µM (≈ 5.83 µg/mL) | 16 µM (≈ 23.3 µg/mL) | 8 µM (≈ 11.7 µg/mL) | 8 µM (≈ 11.7 µg/mL) | 16 µM (≈ 23.3 µg/mL) | 32 µM (≈ 46.7 µg/mL) | ≥ 32 µM | 32 µM (≈ 46.7 µg/mL) | 4 µM (≈ 5.83 µg/mL) | ≥ 32 µM |  |  |  |  |  |  |
